COC(=O)c1ccccc1S(N)(=O)=O
Settings | solubility (mole fraction)
in 2-butanone, 273.15 K | 0.028
in 2-butanone, 278.15 K | 0.0329
in 2-butanone, 283.15 K | 0.0385
in 2-butanone, 287.95 K | 0.0446
in 2-butanone, 293.85 K | 0.0529
in 2-butanone, 298.75 K | 0.0609
in 2-butanone, 303.45 K | 0.0691
in 2-butanone, 308.15 K | 0.0784
in 2-butanone, 313.85 K | 0.0907
in 2-butanone, 318.65 K | 0.102
in 2-butanone, 324.15 K | 0.117
in 2-pentanone, 273.15 K | 0.0185
in 2-pentanone, 278.15 K | 0.0218
in 2-pentanone, 283.15 K | 0.0256
in 2-pentanone, 287.95 K | 0.0298
in 2-pentanone, 293.85 K | 0.0355
in 2-pentanone, 298.75 K | 0.0409
in 2-pentanone, 303.45 K | 0.0466
in 2-pentanone, 308.15 K | 0.053
in 2-pentanone, 313.85 K | 0.0617
in 2-pentanone, 318.65 K | 0.0695
in 2-pentanone, 324.15 K | 0.0797
in acetone, 273.15 K | 0.0414
in acetone, 278.15 K | 0.0483
in acetone, 283.15 K | 0.0561
in acetone, 287.95 K | 0.0643
in acetone, 293.85 K | 0.0757
in acetone, 298.75 K | 0.0863
in acetone, 303.45 K | 0.0976
in acetone, 308.15 K | 0.11
in acetone, 313.85 K | 0.126
in acetone, 318.65 K | 0.141
in acetone, 324.15 K | 0.16
in acetonitrile, 273.15 K | 0.0188
in acetonitrile, 278.15 K | 0.0231
in acetonitrile, 283.15 K | 0.0282
in acetonitrile, 287.95 K | 0.0339
in acetonitrile, 293.85 K | 0.0423
in acetonitrile, 298.75 K | 0.0504
in acetonitrile, 303.45 K | 0.0594
in acetonitrile, 308.15 K | 0.0695
in acetonitrile, 313.85 K | 0.0835
in acetonitrile, 318.65 K | 0.0975
in acetonitrile, 324.15 K | 0.115
in cyclopentanone, 273.15 K | 0.0537
in cyclopentanone, 278.15 K | 0.0616
in cyclopentanone, 283.15 K | 0.0704
in cyclopentanone, 287.95 K | 0.0795
in cyclopentanone, 293.85 K | 0.092
in cyclopentanone, 298.75 K | 0.103
in cyclopentanone, 303.45 K | 0.115
in cyclopentanone, 308.15 K | 0.128
in cyclopentanone, 313.85 K | 0.145
in cyclopentanone, 318.65 K | 0.16
in cyclopentanone, 324.15 K | 0.179
in ethanol, 272.15 K | 0.00172
in ethanol, 278.75 K | 0.00252
in ethanol, 283.15 K | 0.00322
in ethanol, 288.15 K | 0.0042
in ethanol, 293.05 K | 0.0054
in ethanol, 298.05 K | 0.00692
in ethanol, 303.15 K | 0.00887
in ethanol, 308.05 K | 0.0112
in ethanol, 312.15 K | 0.0134
in ethanol, 318.15 K | 0.0175
in ethanol, 324.15 K | 0.0226
in ethyl acetate, 273.15 K | 0.0112
in ethyl acetate, 278.15 K | 0.0135
in ethyl acetate, 283.15 K | 0.0162
in ethyl acetate, 287.95 K | 0.0192
in ethyl acetate, 293.85 K | 0.0236
in ethyl acetate, 298.75 K | 0.0278
in ethyl acetate, 303.45 K | 0.0323
in ethyl acetate, 308.15 K | 0.0373
in ethyl acetate, 313.85 K | 0.0444
in ethyl acetate, 318.65 K | 0.0509
in ethyl acetate, 324.15 K | 0.0596
in ethyl formate, 273.15 K | 0.00969
in ethyl formate, 278.15 K | 0.0119
in ethyl formate, 283.15 K | 0.0145
in ethyl formate, 287.95 K | 0.0174
in ethyl formate, 293.85 K | 0.0215
in ethyl formate, 298.75 K | 0.0256
in ethyl formate, 303.45 K | 0.03
in ethyl formate, 308.15 K | 0.0351
in ethyl formate, 313.85 K | 0.0421
in ethyl formate, 318.65 K | 0.049
in ethyl formate, 324.15 K | 0.0578
in isobutanol, 272.15 K | 0.000673
in isobutanol, 278.75 K | 0.001
in isobutanol, 283.15 K | 0.00129
in isobutanol, 288.15 K | 0.00171
in isobutanol, 293.05 K | 0.00224
in isobutanol, 298.05 K | 0.00291
in isobutanol, 303.15 K | 0.00378
in isobutanol, 308.05 K | 0.00479
in isobutanol, 312.15 K | 0.00586
in isobutanol, 318.15 K | 0.00775
in isobutanol, 324.15 K | 0.0101
in isopentanol, 272.15 K | 0.000712
in isopentanol, 278.75 K | 0.00105
in isopentanol, 283.15 K | 0.00135
in isopentanol, 288.15 K | 0.00177
in isopentanol, 293.05 K | 0.00229
in isopentanol, 298.05 K | 0.00296
in isopentanol, 303.15 K | 0.00381
in isopentanol, 308.05 K | 0.00483
in isopentanol, 312.15 K | 0.00586
in isopentanol, 318.15 K | 0.00764
in isopentanol, 324.15 K | 0.00989
in isopropanol, 272.15 K | 0.000871
in isopropanol, 278.75 K | 0.00134
in isopropanol, 283.15 K | 0.00176
in isopropanol, 288.15 K | 0.00239
in isopropanol, 293.05 K | 0.00317
in isopropanol, 298.05 K | 0.00422
in isopropanol, 303.15 K | 0.00557
in isopropanol, 308.05 K | 0.00726
in isopropanol, 312.15 K | 0.00894
in isopropanol, 318.15 K | 0.0121
in isopropanol, 324.15 K | 0.0161
in methanol, 272.15 K | 0.00311
in methanol, 278.75 K | 0.00462
in methanol, 283.15 K | 0.00595
in methanol, 288.15 K | 0.00788
in methanol, 293.05 K | 0.0102
in methanol, 298.05 K | 0.0133
in methanol, 303.15 K | 0.0171
in methanol, 308.05 K | 0.0217
in methanol, 312.15 K | 0.0264
in methanol, 318.15 K | 0.0348
in methanol, 324.15 K | 0.0454
in methyl acetate, 273.15 K | 0.0162
in methyl acetate, 278.15 K | 0.0196
in methyl acetate, 283.15 K | 0.0235
in methyl acetate, 287.95 K | 0.0279
in methyl acetate, 293.85 K | 0.0341
in methyl acetate, 298.75 K | 0.04
in methyl acetate, 303.45 K | 0.0465
in methyl acetate, 308.15 K | 0.0537
in methyl acetate, 313.85 K | 0.0637
in methyl acetate, 318.65 K | 0.0731
in methyl acetate, 324.15 K | 0.0851
in n-butanol, 272.15 K | 0.00092
in n-butanol, 278.75 K | 0.00137
in n-butanol, 283.15 K | 0.00177
in n-butanol, 288.15 K | 0.00234
in n-butanol, 293.05 K | 0.00307
in n-butanol, 298.05 K | 0.004
in n-butanol, 303.15 K | 0.00518
in n-butanol, 308.05 K | 0.00659
in n-butanol, 312.15 K | 0.00801
in n-butanol, 318.15 K | 0.0106
in n-butanol, 324.15 K | 0.0139
in n-pentanol, 272.15 K | 0.000797
in n-pentanol, 278.75 K | 0.00118
in n-pentanol, 283.15 K | 0.0015
in n-pentanol, 288.15 K | 0.00197
in n-pentanol, 293.05 K | 0.00255
in n-pentanol, 298.05 K | 0.0033
in n-pentanol, 303.15 K | 0.00424
in n-pentanol, 308.05 K | 0.00534
in n-pentanol, 312.15 K | 0.0065
in n-pentanol, 318.15 K | 0.00849
in n-pentanol, 324.15 K | 0.011
in n-propanol, 272.15 K | 0.00106
in n-propanol, 278.75 K | 0.00159
in n-propanol, 283.15 K | 0.00206
in n-propanol, 288.15 K | 0.00274
in n-propanol, 293.05 K | 0.00357
in n-propanol, 298.05 K | 0.00469
in n-propanol, 303.15 K | 0.00609
in n-propanol, 308.05 K | 0.00778
in n-propanol, 312.15 K | 0.00946
in n-propanol, 318.15 K | 0.0125
in n-propanol, 324.15 K | 0.0164
